Holding throughout (format): cell-based
For series [1], the system named is hgprt gene in CHO (Chinese Hamster Ovary) cells. Put plainly: hgprt assay, mutagenesis of cellular DNA, 6-thioguanine selection. To be noted: 1 mM, data not shown. The method, then:
(Data not shown.) An hgprt assay was also performed to test mutagenesis of cellular DNA by DHAdC. The assay was performed on CHO (Chinese Hamster Ovary) cells and mutants were selected for resistance to 6-thioguanine (6-TG). EMS (ethyl methyl sulfonate), a known mutagen, was used as a positive control.

Series [2] relates to HIV-1 RTMC, with 67N, 70R, 215F and 219Q mutations. Put plainly: Sensitivity of NRTI-resistant HIV strain RTMC, MT-2 cells. The note with it: Human immunodeficiency virus 1, MT2. The method, then: (§1) 0.1 ml of a 3×10^5 cells/ml MT-2 cell suspension were seeded in 96-well plates at 3×10^4 cells/well. The compounds to be assayed were diluted in a separate 96-well at ten times (10×) the concentration needed for the screen. 22 μl of the 10× compounds was then added to the wells in triplicate except for six control wells, containing uninfected MT-2 cells alone (3 wells) and untreated HIV-infected MT-2 cells (3 wells). This was followed by the addition of HIV-1 at an MOI of 0.01, except for the three wells serving as the uninfected control. 0.1 ml of cRPMI was added to the uninfected well instead of virus. After the addition of virus, the 96-well plate was centrifuged at 1,200×g for two hours to enhance the adsorption of the virus by the MT-2 cells (see, e.g., O'Doherty, J. Virol. 74:10074-10080 (2000)). After the centrifugation step, the 96-well plate was then incubated in a 37° C. incubator containing 5% CO2 for three days. At the end of this time period the virus and cells were mixed by gentle pipetting followed by a 1 minute spin at 600×g to pellet the cells. The supernatant of each well was then serially diluted 1,000-fold into new 96-well plates to serve as inoculum for the next passage and assayed by ELISA for the amount of p24 produced. The next passage was performed as described above, except that the virus used to infect the cells was derived from the 1,000-fold dilution plate.
(§2) To determine if there is resistance of HIV NRTI resistant strains to mutagenic nucleoside analogues, NRTI resistant strains were grown in the presence of 5-aza-dC to determine whether the EC50 for 5-aza-dC is different from the WT strain (HIV-1 LAI). […] Growth of HIV NRTI resistant strains in the presence of the appropriate concentration of NRTI was used as a positive control.
Three HIV NRTI resistant strains (HIV-1 LAI-M184V, HIV-1 RTMDR1, with 74V, 41L, 106A and 215Y mutations, and HIV-1 RTMC, with 67N, 70R, 215F and 219Q mutations) were used to test the effectiveness of 5-aza-dC. […] Mutations include: M41L, E44D, A62V, K65R, D67N, T69DN, T69S_SS, K70R, L74V, V75I, F77L, Y115F, F116Y, V118I, Q151M, M184V, L210W, T215F and K219QE.
The effectiveness of DHAdC was tested against wild-type HIV strains and NRTI resistant HIV strains as described in Example 2. The following strains were tested: HIV-1 LAI, wild-type; HIV-I LAI-M184V-M184V mutation with resistance to lamivudine (3TC); HIV-1 RTMDR1-74V, 41L, 106A and 215Y mutations with resistance to zidovudine, didanosine, nevirapine and other non-nucleoside reverse transcriptase inhibitors; and HIV-1 RTMC-67N, 70R, 215F and 219Q with resistance to zidovudine.

Series [3] has as its system HIV-1 RTMDR1, with 74V, 41L, 106A and 215Y mutations. Briefly: Sensitivity of NRTI-resistant HIV strain RTMDR1, MT-2 cells. The note with it: Human immunodeficiency virus 1, MT2. The method, then:
as §1, §2
Three HIV NRTI resistant strains (HIV-1 LAI-M184V, HIV-1 RTMDR1, with 74V, 41L, 106A and 215Y mutations, and HIV-1 RTMC, with 67N, 70R, 215F and 219Q mutations) were used to test the effectiveness of 5-aza-dC. […]

In a further series the test system is HIV. Put plainly: In vitro passaging assay of DHAdC. The note with it: 100 nM, quadruplicate. As to the method:
as §1, with “22 μl of the 10× compounds was then added to the wells in triplicate except for six control wells, containing uninfected MT-2 cells alone (3 wells) and untreated HIV-infected MT-2 cells (3 wells).” left out, “plate. […]” for “plate.”

Series [4] can be described thus: Cytotoxicity on MT-2 cells (MTT). The note with it: human. The method, then: For each compound, cytotoxicity was evaluated on MT-2 cells. MT-2 cells were seeded at 3×10^4 cells/well in 96-well plates. […] After 5 days growth in a 37° C. incubator containing 5% CO2, MTT was added to a final concentration of 0.5 mg/ml and then incubated for four hours at 37° C. 10% SDS in 0.02 N HCl was added to lyse the cells overnight at 37° C. The plates were read on a Tecan Genius microplate reader at wavelengths of 570 nm/650 nm. The dose response curve was graphed by comparing the treated cells with the untreated control and the IC50 was determined for each compound.

With `NC1=NC(=O)N([C@H]2C[C@H](O)[C@@H](CO)O2)CN1` [DHAdC, 1-(2-Deoxy-β-D-ribofuranosyl)-4-amino-1,2,5,6-tetrahydro-1,3,5-triazin-2-one], the “mutation frequency of cellular gene hgprt” value in series [1] is “did not increase above background”. This compound also yielded a 50% effective concentration (EC50) in series [2] of 6 µM. In series [3], this compound registered an EC50 of 6 µM. Also, in the series with HIV, the “passage after which no infectious virus was recovered” value was 12 passage and the “passage by which p24 fell permanently below the limit of detection (4 ng/ml)” value is at most 8 passage. For the same compound, the half-maximal inhibitory concentration (IC50) at 5 days in series [4] is over 1000 µM.

Usually EC50 stands for the concentration giving half of the maximal effect. Lower therefore signals an effect from little substance. As a reminder, the IC50 is the concentration at which inhibition is half-maximal. Higher therefore signals weaker potency in that assay.
